Data taken from patent US20040265323A1, “Compositions comprising pathogen elicited epithelial chemoattractant (eicosanoid hepoxilin A3), inhibitors thereof and methods of use thereof” (priority 2003, published 2004).
Entries after “also recorded” stand apart in the source; their conditions may differ.

Tests used:
[1] = test system: IL-8 secretion; test: IL-8 secretion by S. typhimurium infected T84 cell monolayers; type: cell-based, human; conditions: S. typhimurium infected T84, baicalein 1 μM
[2] = test system: PEEC/hepoxilin A3 secretion; test: Apical PEEC/hepoxilin A3 release from S. typhimurium infected T84 cell monolayers; type: cell-based, human; conditions: S. typhimurium infected T84 with 12-LO inhibitor
Excerpt: T84 cell monolayers were infected with S. typhimurium in the absence or presence of the 12-LO enzyme inhibitor and apical supernatants were examined for PEEC bioactivity. […] Moreover, since it had been previously shown that S. typhimurium via its effector SipA initiates an ARF6-dependent lipid-signaling cascade that directs the activation of PKC and release of PEEC, it was further examined if blocking PKC activity (which would occur upstream of 12-LO) also corresponds with a reduction in hepoxilin A3 bioactivity and release, as one would predict.

[3] = test system: P. aeruginosa-induced PMN transepithelial migration, A549 cells; test: P. aeruginosa-induced PMN transepithelial migration across A549 cell monolayers; type: cell-based, human; conditions: A549 monolayers, FIG. 5C
Excerpt: (§1) It was further determined whether similar hepoxilin A3 recruitment of PMN by apically attached pathogens might occur at other mucosal surfaces. Pseudomonas aeruginosa is the most prominent bacterial spp. present during chronic infection in cystic fibrosis and chronic obstructive pulmonary disease patients and is accompanied by severe inflammation, including the emigration of PMN to the airway lumen (Pizurki et al., 2000; Jahn et al., 2000; Weiss, S. 1989). As a model for the airway epithelium the A549 cell line was used. This cell line is capable of forming a polarized barrier, and is widely employed as a model for the airway epithelial surface (Smart and Casale, 1994). […] Finally, the secretion of hepoxlin A3 in vitro was quantified using this A549 model system. For these experiments, A549 lung epithelial cells (ATTC) were grown in F12K media (Invitrogen) with 10% FBS, and maintained in culture similar to the T84 cell line. The wild type P. aeruginosa (PAO1) was used for infection of A549 after overnight aerobic growth (Luria broth) at 37° C.

[4] = test system: hepoxilin A3 secretion; test: Hepoxilin A3 release from P. aeruginosa infected A549 cell monolayers; type: cell-based, human; conditions: A549 treated with inhibitor prior to P. aeruginosa infection; listed as 12-LO inhibitor
Excerpt: as §1
The apical compartment of A549 cell monolayers treated for 90 minutes with P. aeruginosa had approximately 210 pmoles in the apical compartment and nearly 130 pmoles in the basolateral compartment. […]

[5] = test system: 12-LO pathway; test: 12-S-HETE ELISA of lumenal fluid of S. typhimurium-infected xenografts; type: in vivo, human; conditions: S. typhimurium-infected xenografts with baicalein; average of two lumens
Method: (§2) Further, the effect of baicalein on S. typhimurium pathology in human intestinal xenografts was determined (Savidge et al., 1995) (FIG. 7). The human fetal intestinal xenograft model used in the present study has been previously described in detail (Savidge et al., 1995). Briefly, human fetal small intestine (n=3, gestational age 10-14weeks) was transplanted subcutaneously into C.B-17 severe-combined immunodeficient (SCID) mice. Xenografts were allowed to develop for a period between 10-20 weeks before use at which time the epithelium and underlying mucosa is fully differentiated (Savidge et al., 1995). Xenografts were infected with approximately 5×10^7 wild type S. typhimurium SL1344 in sterile HBSS(+) buffer in a 100 μl volume injected intralumenally by subcutaneous injection. […]
(§3) It was further confirmed that treatment of the intestinal xenografts with baicalein inhibited the 12-LO pathway by measuring the amount of 12-S-HETE, a major 12-LO metabolite, released into the lumenal fluid. […] Finally, it was determined that there was no statistical difference in the amount IL-8 produced in the S. typhimurium-infected intestinal xenografts in the absence compared to the presence of baicalein treatment (200±53 pg/mg compared to 225±30 pg/mg, respectively, verses 52±11 pg/mg for uninfected control). […]

[6] = test system: IL-8 production; test: IL-8 produced in S. typhimurium-infected intestinal xenografts; type: in vivo, human; conditions: S. typhimurium-infected xenografts in the presence of baicalein
Method: as §2, §3

[7] = test system: intestinal inflammation (rectal prolapse); test: Intestinal inflammation in SCID mice induced by CD45RBHI T cell transfer; type: in vivo
Method: The therapeutic benefits of baicalein on subsiding intestinal inflammation, which was induced in SCID mice by i.v. injection of CD4+ CD45RB HI T cells, was examined. For these experiments, spleens were collected from 6-12 week old donor mice (BALB/c) and splenocytes were isolated by mechanical homogenization of whole spleens. The CD4+ T cells were selected by positive selection. In brief, a cell suspension of pooled splenocytes from 4-5 donor mice was incubated with anti-CD4 (L3T4) antibody coated magnetic beads (DYNABEADS: Catalog # 114.05, Dynal, Lake Success, N.Y.) for 20-30 minutes at 4° C. and separated by magnetic cell sorting with a Dynal Magnetic Particle Concentrator (MPC). Cells were removed from the cell-bead complex with Dynal DETACHaBEAD, and isolated from beads using a Dynal MPC. The resulting CD4+ enriched population was >90% pure. The cell suspension was then incubated with Fc block (anti-CD32, PharMingen, 01241A) and labeled with anti-CD4-FITC (PharMingen, 9004D) and anti-CD45RB-PE (PharMingen, 01145A), for 30 minutes at 4° C. washed, and sorted using a FACSTAR (Becton Dickinson, San Jose, Calif.) cell sorter. Double positive cells (CD4+/CD45Rb+) were collected, selecting the cells that expressed high levels of CD45Rb (brightest 45%). The collected cell population was >90% pure and viable. Cells were then washed in cold […] buffered saline (PBS Sigma D8662) and resuspended in PBS. Balb/c SCID mice, aged 6-12 weeks, were injected intravenously with CD45RBHI Tcells in the tail vein.
Ten weeks post CD45RBHI T cell transfer, roughly 30% of SCID mice developed intestinal inflammation, characterized by mucin depletion, goblet cell loss, epithelial hyperplasia and finally rectal prolapse (FIG. 8). These mice were divided equally among treatment groups The first treatment group received buffer control alone (sterile Hanks Balanced Salts Solution (“HBSS”)) and the second and the third treatment groups received low (2 μM) and high (200 μM) doses of baicalein i.v., respectively, every other day along with a vehicle control. […]

O=c1cc(-c2ccccc2)oc2cc(O)c(O)c(O)c12 [baicalein]
IL-8 secretion [1]: 577 ± 35 pg/mL
PEEC secretion (bioactivity of apical supernatants) [2]: significant decrease in PEEC secretion; also recorded: dramatically reduced
P. aeruginosa-induced PMN transepithelial migration with 12-LO inhibitor [3]: inhibited
hepoxilin A3 levels released [4]: no detectable levels of hepoxilin A3
12-S-HETE in lumenal fluid [5]: 21.5 ng/mL
IL-8 produced [6]: 225 ± 30 pg/mg
rectal prolapse ([7]; high dose 200 μM i.v. every other day, 2.5 weeks): complete recovery of rectal prolapse
health status and rectal prolapse ([7]; low dose 2 μM i.v. every other day, 2.5 weeks): no improvement of their health status and rectal prolapse
illness (rectal prolapse, diarrhea, weight loss) ([7]; therapeutic regimen, after 2 weeks): resolved the illness
